According to article PMC3650853 (Journal of medicinal chemistry, 2010):

How the values were obtained:
[1] = molecular target: mouse CB2 (mCB2) (Mus musculus, UniProt P47936); experiment: Radioligand binding, displacement of [3H]CP-55,940 from mouse spleen membranes; conditions: for lower affinity for CB2 compared to 6b: mCB2 Ki relative to 6b
[2] = molecular target: rat CB1 (rCB1) (Rattus norvegicus, UniProt P20272); format: binding
[3] = test system: rats; experiment: Hypothermia test, core body temperature over 6 hours after injection; format: in vivo; conditions: rat, 0.1 mg/kg s.c.
[4] = test system: rats; experiment: Antinociception, tail-flick procedure over 6 hours after injection; conditions: rat
[5] = molecular target: rCB1 receptor (Rattus norvegicus, UniProt P20272); format: cell-based
Sequence of rCB1 receptor (P20272 whole entry): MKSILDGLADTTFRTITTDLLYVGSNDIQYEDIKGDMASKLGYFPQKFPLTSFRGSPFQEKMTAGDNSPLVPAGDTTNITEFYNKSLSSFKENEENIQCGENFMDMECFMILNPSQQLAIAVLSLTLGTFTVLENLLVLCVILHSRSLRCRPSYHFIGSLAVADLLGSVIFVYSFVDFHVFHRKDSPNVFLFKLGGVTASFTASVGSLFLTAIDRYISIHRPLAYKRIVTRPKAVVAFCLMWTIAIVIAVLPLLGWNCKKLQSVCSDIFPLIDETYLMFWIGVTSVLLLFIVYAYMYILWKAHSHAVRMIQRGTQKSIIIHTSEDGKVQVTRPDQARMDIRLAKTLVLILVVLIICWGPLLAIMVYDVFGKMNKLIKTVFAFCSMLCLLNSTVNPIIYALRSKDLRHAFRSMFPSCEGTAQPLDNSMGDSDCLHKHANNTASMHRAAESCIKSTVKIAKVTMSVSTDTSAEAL

[6] = six-atom versus seven-atom ω-bromo side chain

Sequence of rat CB1 (rCB1) (P20272 whole entry): as above
Sequence of mouse CB2 (mCB2) (P47936 whole entry): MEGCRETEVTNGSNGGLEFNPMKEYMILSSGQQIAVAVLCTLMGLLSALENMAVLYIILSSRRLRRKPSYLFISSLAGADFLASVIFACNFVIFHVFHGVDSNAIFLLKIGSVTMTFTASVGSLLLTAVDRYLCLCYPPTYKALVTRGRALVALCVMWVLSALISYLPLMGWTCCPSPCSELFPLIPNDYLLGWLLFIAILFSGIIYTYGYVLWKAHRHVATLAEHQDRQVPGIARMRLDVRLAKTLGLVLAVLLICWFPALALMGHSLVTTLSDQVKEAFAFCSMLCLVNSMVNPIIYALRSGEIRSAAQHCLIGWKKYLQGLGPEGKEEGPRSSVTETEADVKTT

CCCC/C=C\C1(c2cc(O)c3c(c2)OC(C)(C)[C@@H]2CCC(=O)C[C@@H]32)CCCC1 [6a, (6aR, 10aR)-3-[1-(1,2-cis-Hexen-1-yl)-cyclopent-1-yl]-6,6a,7,8,10,10a-hexahydro-1-hydroxy-6,6-dimethyl-9H-dibenzo[b,d]pyran-9-one]
lower affinity for CB2 compared to 6b [1]: 5 fold

CCCCCCC1(c2cc(O)c3c(c2)OC(C)(C)[C@@H]2CCC(=O)C[C@@H]32)SCCS1 [6c, (6aR, 10aR)-3-(2-Hexyl-1,3-dithiolan-2-yl)-6,6a,7,8,10,10a-hexahydro-1-hydroxy-6,6-dimethyl-9H-dibenzo[b,d]pyran-9-one]
lower affinity for CB1 compared to 6b ([2]; rCB1 Ki relative to 6b): 4 fold | lower affinity for CB2 compared to 6b [1]: 44 fold

CCCC/C=C\C1(c2cc(O)c3c(c2)OC(C)(C)[C@@H]2CCC(=O)C[C@@H]32)CCC1 [6d, (6aR, 10aR)-3-[1-(1,2-cis-Hexen-1-yl)-cyclobut-1-yl]-6,6a,7,8,10,10a-hexahydro-1-hydroxy-6,6-dimethyl-9H-dibenzo[b,d]pyran-9-one]
selectivity for CB1 over CB2 ([2]; from Ki rCB1 and mCB2, as stated in text): 11 fold

CCCCCCC1(c2cc(O)c3c(c2)OC(C)(C)[C@@H]2CC[C@@H](O)C[C@@H]32)CCC1 [7e-β, (6aR, 9R, 10aR)-3-(1-Hexyl-cyclobut-1-yl)-6a,7,8,9,10,10a-hexahydro-6,6-dimethyl-6H-dibenzo[b,d]pyran-1,9 diol]
onset of drug effect (hypothermia) after injection [3]: 60 to 90 min | time of peak effects (hypothermia) after injection [3]: 300 min | reduction of core body temperature ([3]; from average baseline of 38.48±0.06°C): up to 4.2±0.5 °C | antinociception, % of the maximum possible effect ([4]; 0.1 mg/kg 7e-β after 30-min pretreatment with 1.0 mg/kg rimonabant (SR141716A)): 85.4±5.8% | antinociception, % of the maximum possible effect ([4]; 0.1 mg/kg 7e-β after 30-min pretreatment with 3.0 mg/kg rimonabant (SR141716A)): 48.0±10.9% | antinociception, % of the maximum possible effect ([4]; 0.1 mg/kg 7e-β alone, different group of animals): 100% | doses with significant antinociceptive effects ([4]; s.c., tail-flick): 0.01 to 0.3 mg/kg | onset of the antinociceptive effects after injection ([4]; s.c., tail-flick): 60 to 120 min | time course of antinociceptive effects ([4]; s.c., tail-flick, 6 hour test period): generally increased over the 6 hour test period | EC50 [5]: 1.5 ± 0.3 nM | functional efficacy at CB1 ([5]; cAMP assay): full agonist

CC1(C)Oc2cc(C3(CCCCBr)CCCC3)cc(O)c2[C@@H]2CC(=O)CC[C@H]21 [15a, (6aR,10aR)-3-[1-(4-Bromobutyl)cyclopentyl]-6,6a,7,8,10,10a-hexahydro-1-hydroxy-6,6-dimethyl-9H-dibenzo[b,d]pyran-9-one]
reduction in affinity for CB1 [2, 6]: 13 fold | reduction in affinity for CB2 [1, 6]: 5 fold

CN1CC[C@]23c4c5ccc(O)c4O[C@H]2[C@@H](O)C=C[C@H]3[C@H]1C5 [morphine, reference compound]
time after injection by which antinociceptive effects were decreasing ([4]; s.c., tail-flick): 3 h | time of peak antinociceptive effects after injection ([4]; s.c., tail-flick): 30 to 120 min | antinociceptive effects lower than 7e-β ([4]; tail-flick, relative to 7e-β): approximately 100 fold
